Reference: publication PMC3059997, “Exploring Indirect Sources of Human Exposure to Perfluoroalkyl Carboxylates (PFCAs): Evaluating Uptake, Elimination, and Biotransformation of Polyfluoroalkyl Phosphate Esters (PAPs) in the Rat” (Environmental Health Perspectives, 2010)

Assays:
[1] = Uptake experiment: diPAP mixture by oral gavage, analytes in whole blood; assay type: in vivo, Sprague-Dawley rats; conditions: for Detection in blood (time points): after diPAP oral gavage; for Tmax / Cmax / Half-life: diPAP gavage dose, whole blood; for Cmax / Half-life: mean ± SE; for Cmax: values in parentheses < LOQ but > LOD; for Half-life: about 50 mg/kg each
Method: (§1) This research was conducted under an animal use protocol approved by the University of Toronto Animal Care Committee. All animals were treated humanely and with regard for alleviation of suffering. Sprague-Dawley rats were obtained from Charles River Laboratories Inc. (Sherbrooke, QC, Canada) The animals were singly housed and exposed to a 12/12 hr light/dark cycle with food and water available ad libitum. Blood samples were collected from the saphenous vein using Microvette CB 300 vials (Sarstedt AG & Co., Montreal, QC, Canada) embedded with lithium-heparin as an anticoagulant. Whole-blood samples were stored at −20°C, and urine and feces samples were stored at 4°C.
(§2) Two groups of four 8-week-old male rats were administered a mixture of 4:2, 6:2, 8:2, and 10:2 diPAP or monoPAP, respectively, each at about 50 mg/kg, at 4 mL/kg by oral gavage without prior fasting. […] Two control male rats were administered clean vehicle at 4 mL/kg [for details, see Supplemental Material, Table 3 (doi:10.1289/ehp.1002409)].
(§3) Blood was collected from all animals 3 days before dosing to establish background contamination. For the uptake experiment, blood samples were collected at 1, 3, and 6 hr and 1, 2, 4, 7, 10, 14, 18, and 22 days after dosing. For the elimination experiment, blood samples were collected at 2, 4, and 6 hr and 1, 2, 4, 8, 11, 15, and 18 days after dosing. On the final sampling day, the animals were sacrificed by carbon dioxide asphyxiation, and about 10 mL of blood was collected by cardiac puncture into a BD Vacutainer embedded with lithium-heparin.
(§4) The compounds of interest fall into four categories: a) the diPAP and monoPAP parent compounds, b) the saturated and unsaturated fluorotelomer carboxylic acid (FTCA and FTUCA) metabolic intermediates, c) the FTOH-sulfate and FTOH-glucuronide phase II metabolites, and d) the final PFCA biotransformation products [see Supplemental Material, Table 1 (doi:10.1289/ehp.1002409)]. We analyzed these compounds in whole blood, urine, and feces samples. For full analytical details, see Supplemental Material. All PFCAs, FTCAs, FTUCAs, and phase II metabolites were quantified by internal calibration. Because internal standards were not available, monoPAPs and diPAPs were quantified by standard addition. We performed spike and recovery experments to validate the extraction and quantification techniques used (for details, see Supplemental Material).
(§5) Analyte and matrix specific limits of detection (LODs) and limits of quantification (LOQs) are provided in Supplemental Material (doi:10.1289/ehp.1002409). For the purpose of calculating means, values < LOD were assigned a value of zero, and values < LOQ but > LOD were used unaltered but are indicated by asterisks in figures and parentheses in tables. Values are presented using the arithmetic mean ± SE. Full data sets are available in Supplemental Material. […]

[2] = Uptake experiment: monoPAP mixture by oral gavage, analytes in whole blood; assay type: in vivo, Sprague-Dawley rats; conditions: for Detection in blood (time points): after monoPAP oral gavage; for Tmax / Cmax / Cmax (ng/g): whole blood; for Cmax / Cmax (ng/g): values in parentheses < LOQ but > LOD
Method: as §1, §2, §3, §4
(§6) Analyte and matrix specific limits of detection (LODs) and limits of quantification (LOQs) are provided in Supplemental Material (doi:10.1289/ehp.1002409). For the purpose of calculating means, values < LOD were assigned a value of zero, and values < LOQ but > LOD were used unaltered but are indicated by asterisks in figures and parentheses in tables. Values are presented using the arithmetic mean ± SE. Full data sets are available in Supplemental Material.

[3] = Elimination experiment: diPAP mixture by IV injection, analytes in whole blood; assay type: in vivo, Sprague-Dawley rats; conditions: for Half-life / Tmax / Cmax / Cmax (ng/g): diPAP IV dose, whole blood; for Half-life: about 15 mg/kg each; for Half-life / Cmax / Cmax (ng/g): mean ± SE; for Cmax / Cmax (ng/g): values in parentheses < LOQ but > LOD
Method: as §1
(§7) Two groups of four 8-week-old male rats were administered a mixture of 4:2, 6:2, 8:2, and 10:2 diPAP or monoPAP, respectively, each at about 15 mg/kg, at 2 mL/kg by intravenous (IV) injection into the lateral tail vein. The dosing vehicle was 50:50 propylene glycol:water. Two control male rats were administered clean vehicle at 2 mL/kg [for details see Supplemental Material, Table 3 (doi:10.1289/ehp.1002409)].
as §3, §4, §5

[4] = Elimination experiment: monoPAP mixture by IV injection, analytes in whole blood; assay type: in vivo, Sprague-Dawley rats; conditions: monoPAP IV dose; for Half-life: about 15 mg/kg each, PFCA product in whole blood; for Cmax / Tmax: whole blood
Method: as §1, §7, §3, §4, §6

[5] = set-up: method as in Chang et al. 2008; Ohmori et al. 2003; conditions: male rats; ref Chang et al. 2008; Ohmori et al. 2003; cited from earlier work
[6] = male, Sprague-Dawley, rat, in vivo, 15 mg/kg, read-out: Cmax
[7] = male, Sprague-Dawley, rat, in vivo, 15 mg/kg, read-out: Tmax (converted)

O=C(O)CC(F)(F)C(F)(F)C(F)(F)C(F)(F)C(F)(F)C(F)(F)C(F)(F)C(F)(F)F [8:2 FTCA]
Detection in blood (time points) [1]: 6 hr postdosing, but in only one animal
Detection in blood (time points) [2]: blood samples taken 2, 4, and 6 hr postdosing

O=S(=O)(O)OCCC(F)(F)C(F)(F)C(F)(F)C(F)(F)C(F)(F)C(F)(F)C(F)(F)C(F)(F)F [8:2 FTOH-sulfate]
Detection in blood (time points) [2]: frequently detected between 6 hr and 2 days postdosing

O=C(O)CC(F)(F)C(F)(F)C(F)(F)C(F)(F)C(F)(F)C(F)(F)C(F)(F)C(F)(F)C(F)(F)C(F)(F)F [10:2 FTCA]
Detection in blood (time points) [1]: present in the blood at the 6-hr time point
Detection in blood (time points) ([3]; after IV diPAP dosing): only in the sample collected 2 days after dosing

O=S(=O)(O)OCCC(F)(F)C(F)(F)C(F)(F)C(F)(F)C(F)(F)C(F)(F)C(F)(F)C(F)(F)C(F)(F)C(F)(F)F [10:2 FTOH-sulfate]
Detection in blood (time points) [1]: at 1 and 2 days after dosing
Detection in blood (time points) [2]: frequently detected between 6 hr and 2 days postdosing

O=C(O)C(F)(F)C(F)(F)C(F)(F)F [PFBA, perfluorobutanoic acid]
Tmax [1]: 1 day days
Cmax [1]: 3.8 ± 1.0 ng/g
Half-life [3]: 79.2 ± 28.8 h
Tmax [3]: 1 day days
Cmax [3]: 20 ± 5 ng/g
Half-life [4]: 12.7 ± 3.6 h
Cmax [4]: 7.3 ± 1.3 ng/g
Tmax [4]: 6 h
Serum half-lives [5]: on the order of hours
Tmax ([2]; monoPAP gavage dose): 1 day days
Cmax ([2]; monoPAP gavage dose): 9.7 ± 1.9 ng/g

O=C(O)C(F)(F)C(F)(F)C(F)(F)C(F)(F)C(F)(F)C(F)(F)C(F)(F)C(F)(F)C(F)(F)F [PFDA, perfluorodecanoate]
Half-life [1]: 264 ± 48 h
Tmax [1]: 1 day days
Cmax [1]: 3.6 ± 0.6 ng/g
Half-life [3]: 240 ± 48 h
Tmax [3]: 2 days
Cmax [3]: 6.2 ± 1.2 ng/g
Half-life [4]: 312 ± 220 h
Cmax [4]: 0.93 ± 0.20 ng/g
Tmax [4]: 360 h
Half-life ([2]; monoPAP gavage dose, about 50 mg/kg each, PFCA product in whole blood): 288 ± 190 h
Tmax ([2]; monoPAP gavage dose): 48 h
Cmax (ng/g) ([2]; monoPAP gavage dose): (1.1 ± 0.27) ng/g

O=C(O)C(F)(F)C(F)(F)C(F)(F)C(F)(F)C(F)(F)C(F)(F)F [PFHpA, perfluoroheptanoic acid]
Cmax ([1]; male, Sprague-Dawley, rat, in vivo, po, 50 mg/kg, read-out: Cmax): 2.6 ± 0.5 ng/g
Tmax ([1]; male, Sprague-Dawley, rat, in vivo, po, 50 mg/kg, read-out: Tmax (converted)): 24 h
Cmax [3, 6]: 7.3 ± 0.6 ng/g
Tmax [3, 7]: 0.167 days
Cmax [4, 6]: 2.3 ± 0.7 ng/g
Tmax [4, 7]: 24 h
Tmax ([2]; male, Sprague-Dawley, rat, in vivo, po, 50 mg/kg, monoPAP gavage dose, read-out: Tmax (converted)): 24 h
Cmax ([2]; male, Sprague-Dawley, rat, in vivo, po, 50 mg/kg, monoPAP gavage dose, read-out: Cmax): 9 ± 2.2 ng/g

O=C(O)C(F)(F)C(F)(F)C(F)(F)C(F)(F)C(F)(F)F [PFHxA, perfluorohexanoic acid]
Half-life [1]: 101 ± 31.2 h
Tmax [1]: 4 h
Cmax [1]: 10 ± 1.2 ng/g
Half-life [3]: 43.2 ± 12.2 h
Tmax [3]: 1 day days
Cmax (ng/g) [3]: (3.0 ± 1.0) ^d ng/g
Half-life [4]: 5.52 ± 5.52 h
Cmax [4]: 5.6 ± 1.3 ng/g
Tmax [4]: 4 h
Serum half-lives [5]: on the order of hours
Tmax ([2]; monoPAP gavage dose): 4 h
Cmax ([2]; monoPAP gavage dose): 7.4 ± 1.5 ng/g

O=C(O)C(F)(F)C(F)(F)C(F)(F)C(F)(F)C(F)(F)C(F)(F)C(F)(F)C(F)(F)F [PFNA, perfluorononanoate]
Tmax [1]: 190 h
Cmax [1]: 6.4 ± 5.2 ng/g
Tmax [3]: 15 days
Cmax (ng/g) [3]: (4.1 ± 3.3) ng/g
Cmax [4]: 2.3 ± 0.4 ng/g
Tmax [4]: 360 h
Tmax ([2]; monoPAP gavage dose): 1 day days
Cmax (ng/g) ([2]; monoPAP gavage dose): (1.5 ± 0.09) ng/g

O=C(O)C(F)(F)C(F)(F)C(F)(F)C(F)(F)F [PFPeA, perfluoropentanoic acid]
Tmax [3]: 0.083 days
Cmax [3]: 7.1 ± 0.6 ng/g
Cmax [4]: 2.1 ± 0.8 ng/g
Tmax [4]: 6 h
